From patent publication EP4781990A1, “PHARMACEUTICAL COMPOSITION CONTAINING HETEROARYL OXYNAPHTHALENE COMPOUND, PREPARATION METHOD THEREFOR, AND USE THEREOF” (Shanghai Runshi Medical Technology Co., Ltd, priority 2023, dated 2025) come the findings set out here.

Common to all, as to assay type: physicochemical
The nature of data set [1]: Water sorption and desorption experiment (DVS, hygroscopicity). Conditions: 40-80% relative humidity, 25 °C. The protocol:
In the following examples, the related analysis and detection conditions are as follows: 1. X-ray powder diffractometer (XRPD) • Instrument: BRUKER D8 Advance X-ray powder diffractometer, Germany. • Conditions: Cu-Kα radiation (λ = 1.5418 Å), tube voltage: 40 kV, tube current: 40 mA, 2θ scanning range: 3-40°, scanning step size: 0.02° (2θ), scanning speed: 10 s/step, sample tray: a zero background sample tray. • Method: a sample was spread on a zero background monocrystalline silicon sample tray and was gently pressed using a medicine spoon to be flat for measurement. 2. Chloride • Detection instrument: Dionex ICS-900 ion chromatograph • Column: Dionex Ion Pac AS11-HC anion chromatographic column (specification: 4 × 250 mm) • Determination method: 10 µL of each of the control solution and the sample solution was measured precisely and injected into the ion chromatograph, the chromatogram was recorded, and the chloride ion content was calculated based on peak area according to the external standard method. 3. Dynamic vapor sorption/desorption (DVS) analysis Instrument: DVS Intrinsic plus (SMS, UK). Method: a sample was placed in a tared sample basket, the weight of the sample was automatically measured, and the sample was analyzed according to the parameters in the table below.
The samples obtained in Preparation Example 2 and Preparation Example 3 were investigated for moisture sorption and desorption under the relative humidity of 40-80% using a dynamic vapor sorption (DVS) instrument at a temperature of 25 °C to determine the hygroscopicity of various salt forms. Table 6 Hygroscopicity experimental results of different salt forms of compound (I) (DVS, 40-80%)

A short description of data set [2]: Solid stability experiment of compound (A). The settings on record: for Crystalline form: XRPD.
Data set [3] in a line: Grinding stability experiment of compound (A). Conditions: XRPD.

`CNC(=O)c1cccc2cc(Oc3ccnc(NC(=O)c4ccc(N5C[C@@H](C)N[C@@H](C)C5)cc4)c3)ccc12` [Compound (A)]: in data set [1], the “Hygroscopicity (%)” value amounted to 0.65%. For the same compound, in data set [1], the “Hygroscopicity (in words)” value is “slightly hygroscopic”. The Purity/% in data set [2] (40 °C/75% RH (open), 7 days) came to 99.86%; in data set [2] (60 °C (sealed), 7 days), 99.85%; in data set [2] (Initial state, 0 days), 99.85%. For the same compound, the Crystalline form result in data set [2] (40 °C/75% RH (open), 7 days) is given as “Crystalline form I”; in data set [2] (60 °C (sealed), 7 days), “Crystalline form I”; in data set [2] (Initial state, 0 days), “Crystalline form I”; in data set [2] (room temperature/92.5% RH (open), 10 days), “Crystalline form I”. Also, the “Crystalline form change after grinding with organic solvent” value in data set [3] (ground after dropwise addition of methanol, ethanol, acetone, acetonitrile, or ethyl acetate) is “no crystalline form change occurred”. For the same compound, in data set [3] (mechanically ground using a mortar for 2 min and 5 min), the “Crystalline form change after grinding” value was “no crystalline form change occurred”.
As for Fumarate, the “Hygroscopicity (%)” value in data set [1] stood at 2.11%.
On the same count and under the same terms, the figure for Phosphate is 3.75%.
